Values quoted from earlier work in patent publication US10232037B2, “Supramolecular hydrogel of fMLF-based molecules and use thereof” (BRANDEIS UNIVERSITY, priority 2014, dated 2019).

Tested on: neutrophils
Details: aqueous solution, literature

CSCC[C@H](NC=O)C(=O)N[C@@H](CC(C)C)C(=O)N[C@@H](Cc1ccccc1)C(=O)O [fMLF, N-formyl-L-methionyl-L-leucyl-L-phenylalanine]
duration of neutrophil accumulation effect: 2 to 6 h
